Test results reported in PubChem BioAssay AID330 (DTP/NCI, 2004).
“And” between values parts separate entries of the source, which are not always exact repeats. Equal values may be shown once. Inconclusive results and toxic doses are left out. How the source made its calls: active means survival T/C of 150% or more; inactive means T/C below 125% in these data.

Test system: P388 leukemia ip, CD2F1 mice, survival T/C
Assay: NCI In Vivo Anticancer Drug Screen. Data for tumor model P388 Leukemia (intraperitoneal) in CD2F1 (CDF1) mice
Settings: endpoint: median survival time, higher = longer survival
How it was run: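 Mice carrying the transplanted tumor received test compound or vehicle. Survival was recorded in each group, and the value is the treated-group measurement divided by that of the vehicle-treated control group.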

[1] = dose: 50.0 mg/kg/injection, schedule: Q01DX005 (ip), vehicle: saline
[2] = dose: 50.0 mg/kg/injection, schedule: Q01DX009 (ip), vehicle: saline with Tween-80
[3] = dose: 100.0 mg/kg/injection, schedule: Q01DX009 (ip), vehicle: saline with Tween-80
[4] = dose: 200.0 mg/kg/injection, schedule: Q01DX009 (ip), vehicle: saline with Tween-80
[5] = dose: 100.0 mg/kg/injection, schedule: Q01DX001 (ip), vehicle: Klucel (hydroxypropylcellulose) (HPC)
[6] = dose: 200.0 mg/kg/injection, schedule: Q01DX001 (ip), vehicle: Klucel (hydroxypropylcellulose) (HPC)
[7] = dose: 400.0 mg/kg/injection, schedule: Q01DX001 (ip), vehicle: Klucel (hydroxypropylcellulose) (HPC)
[8] = dose: 60.0 mg/kg/injection, schedule: Q01DX005 (ip), vehicle: saline with Tween-80
[9] = dose: 120.0 mg/kg/injection, schedule: Q01DX005 (ip), vehicle: saline with Tween-80
[10] = dose: 50.0 mg/kg/injection, schedule: Q01DX005 (ip), vehicle: saline with Tween-80
[11] = dose: 100.0 mg/kg/injection, schedule: Q01DX005 (ip), vehicle: saline with Tween-80
[12] = dose: 200.0 mg/kg/injection, schedule: Q01DX005 (ip), vehicle: saline with Tween-80
[13] = dose: 25.0 mg/kg/injection, schedule: Q01DX009 (ip), vehicle: saline with Tween-80

Measured: T/C

COc1cc(NC(=O)c2ccc(NC(=O)c3ccc(N)cc3)cc2)c(OC)cc1N=Nc1ccc(N=Nc2ccc3cc(S(=O)(=O)O)cc(S(=O)(=O)O)c3c2)c(C)c1
inactive: [1] 106 % of control (2×) and 111 % of control | dose: 100.0 mg/kg/injection, schedule: Q01DX005 (ip), vehicle: saline 106 % of control and 109 % of control and 115 % of control | dose: 200.0 mg/kg/injection, schedule: Q01DX005 (ip), vehicle: saline 114 % of control and 115 % of control and 123 % of control | dose: 400.0 mg/kg/injection, schedule: Q01DX005 (ip), vehicle: saline 116 % of control and 117 % of control

CC(=O)C(=O)c1ccc(O)c(C)c1O
inactive: [2] 107 % of control | [3] 104 % of control | [4] 105 % of control

c1ccc(CNNc2nn[nH]n2)cc1
inactive: [5] 96 % of control | [6] 95 % of control | [7] 96 % of control

CCCCCCCC[N+]1(CC)CCCC1
inactive: dose: 3.12 mg/kg/injection, schedule: Q01DX009 (ip), vehicle: saline 95 % of control | dose: 6.25 mg/kg/injection, schedule: Q01DX009 (ip), vehicle: saline 95 % of control | dose: 12.5 mg/kg/injection, schedule: Q01DX009 (ip), vehicle: saline 96 % of control

CN(C)Cc1[nH]c2ccccc2c1Sc1ccccc1
inactive: [8] 100 % of control | [9] 119 % of control

O=C(N=Nc1c(Cl)c(O)c2ccccc2c1O)C(=O)Nc1ccc(Cl)c([N+](=O)[O-])c1
inactive: [2] 113 % of control | [3] 112 % of control

C1CCC([Se][Se]C2CCCC2)C1
inactive: dose: 12.5 mg/kg/injection, schedule: Q01DX009 (ip), vehicle: Klucel (hydroxypropylcellulose) (HPC) 104 % of control | dose: 25.0 mg/kg/injection, schedule: Q01DX009 (ip), vehicle: Klucel (hydroxypropylcellulose) (HPC) 110 % of control | dose: 50.0 mg/kg/injection, schedule: Q01DX009 (ip), vehicle: Klucel (hydroxypropylcellulose) (HPC) 99 % of control and 101 % of control

C[n+]1ccc(C#N)c(C#N)c1
inactive: dose: 3.75 mg/kg/injection, schedule: Q01DX005 (ip), vehicle: Klucel (hydroxypropylcellulose) (HPC) 102 % of control | dose: 7.5 mg/kg/injection, schedule: Q01DX005 (ip), vehicle: Klucel (hydroxypropylcellulose) (HPC) 116 % of control | dose: 15.0 mg/kg/injection, schedule: Q01DX005 (ip), vehicle: Klucel (hydroxypropylcellulose) (HPC) 103 % of control | dose: 30.0 mg/kg/injection, schedule: Q01DX005 (ip), vehicle: Klucel (hydroxypropylcellulose) (HPC) 108 % of control and 110 % of control

CCN(CC)CCOC(=O)Cc1ccc2c(=O)cc(-c3ccc(C)cc3)oc2c1
inactive: dose: 12.5 mg/kg/injection, schedule: Q01DX005 (ip), vehicle: Klucel (hydroxypropylcellulose) (HPC) 109 % of control | dose: 25.0 mg/kg/injection, schedule: Q01DX005 (ip), vehicle: Klucel (hydroxypropylcellulose) (HPC) 108 % of control | dose: 50.0 mg/kg/injection, schedule: Q01DX005 (ip), vehicle: Klucel (hydroxypropylcellulose) (HPC) 103 % of control and 114 % of control | dose: 100.0 mg/kg/injection, schedule: Q01DX005 (ip), vehicle: Klucel (hydroxypropylcellulose) (HPC) 121 % of control

Cc1cc(=O)n(-c2ccc(S(=O)(=O)Nc3nccs3)cc2)c(C)c1C(=O)O
inactive: [10] 103 % of control | [11] 98 % of control | [12] 100 % of control

COC(=O)C(N)CCl (stereo unspecified)
inactive: dose: 12.5 mg/kg/injection, schedule: Q01DX009 (ip), vehicle: water 91 % of control | dose: 25.0 mg/kg/injection, schedule: Q01DX009 (ip), vehicle: water 92 % of control | dose: 50.0 mg/kg/injection, schedule: Q01DX009 (ip), vehicle: water 90 % of control | dose: 100.0 mg/kg/injection, schedule: Q01DX009 (ip), vehicle: water 99 % of control | dose: 200.0 mg/kg/injection, schedule: Q01DX009 (ip), vehicle: water 90 % of control

Cc1ccc(-c2cs/c(=N\N=C3/CSC(=O)N3Cc3ccccc3)n2-c2ccccc2)cc1
inactive: dose: 100.0 mg/kg/injection, schedule: Q04DX002 (ip), vehicle: Klucel (hydroxypropylcellulose) (HPC) 98 % of control | dose: 200.0 mg/kg/injection, schedule: Q04DX002 (ip), vehicle: Klucel (hydroxypropylcellulose) (HPC) 89 % of control

c1ccc(CCn2cccc/c2=N/C(=NC2CCCCC2)NC2CCCCC2)cc1
inactive: dose: 100.0 mg/kg/injection, schedule: Q01DX001 (ip), vehicle: suspension in saline 91 % of control | dose: 200.0 mg/kg/injection, schedule: Q01DX001 (ip), vehicle: suspension in saline 88 % of control | dose: 400.0 mg/kg/injection, schedule: Q01DX001 (ip), vehicle: suspension in saline 92 % of control

CCN(CC)CCCNC(=O)c1noc2cc([N+](=O)[O-])ccc12
inactive: dose: 12.5 mg/kg/injection, schedule: Q01DX005 (ip), vehicle: saline 113 % of control | dose: 25.0 mg/kg/injection, schedule: Q01DX005 (ip), vehicle: saline 105 % of control | [1] 99 % of control

CN1C(=O)CC(Sc2ccccc2)c2cc(Cl)ccc21 (stereo unspecified)
inactive: [13] 99 % of control | [2] 100 % of control | [3] 97 % of control

COc1cccc(N=Nc2c(-c3ccccc3)nn(C(N)=S)c2C)c1
inactive: [10] 100 % of control | [11] 89 % of control | [12] 91 % of control

c1ccc(-c2nnn(CCCN3CCOCC3)n2)cc1
inactive: [5] 100 % of control | [6] 97 % of control | [7] 102 % of control

CN(C)C(=O)c1cc(N2CC2)c([N+](=O)[O-])cc1[N+](=O)[O-]
inactive: dose: 1.56 mg/kg/injection, schedule: Q01DX009 (ip), vehicle: saline with Tween-80 98 % of control and 117 % of control | dose: 3.12 mg/kg/injection, schedule: Q01DX009 (ip), vehicle: saline with Tween-80 115 % of control | dose: 6.25 mg/kg/injection, schedule: Q01DX009 (ip), vehicle: saline with Tween-80 100 % of control and 101 % of control and 113 % of control | [13] 110 % of control

Cc1c(N=Nc2ccccc2C(F)(F)F)c(-c2ccccc2)nn1C(=S)S
inactive: dose: 100.0 mg/kg/injection, schedule: Q01DX001 (ip), vehicle: saline with Tween-80 89 % of control | dose: 200.0 mg/kg/injection, schedule: Q01DX001 (ip), vehicle: saline with Tween-80 90 % of control | dose: 400.0 mg/kg/injection, schedule: Q01DX001 (ip), vehicle: saline with Tween-80 101 % of control

O=C(CSC(SCC(=O)Nc1ccccc1)c1ccccc1)Nc1ccccc1
inactive: dose: 60.0 mg/kg/injection, schedule: Q01DX005 (ip), vehicle: Klucel (hydroxypropylcellulose) (HPC) 101 % of control | dose: 120.0 mg/kg/injection, schedule: Q01DX005 (ip), vehicle: Klucel (hydroxypropylcellulose) (HPC) 86 % of control

CCn1c2ccc(N)cc2c2c3ncc4cccn4c3ccc21
inactive: [8] 88 % of control | [9] 87 % of control

CC(N)C12CC3CC(CC(C3)C1)C2 (stereo unspecified)
inactive: dose: 25.0 mg/kg/injection, schedule: Q04DX002 (ip), vehicle: saline 108 % of control | dose: 50.0 mg/kg/injection, schedule: Q04DX002 (ip), vehicle: saline 100 % of control | dose: 100.0 mg/kg/injection, schedule: Q04DX002 (ip), vehicle: saline 100 % of control | dose: 100.0 mg/kg/injection, schedule: Q04DX002 (ip), vehicle: suspension in saline 101 % of control

CCCCCCCCN(/N=C/c1c2c(O)c3c(O)c(C)c4c(c3c1O)C(=O)C(C)(O/C=C/C(OC)C(C)C(OC(C)=O)C(C)C(O)C(C)C(O)C(C)/C=C/C=C(C)C(=O)N2)O4)C1OC(COC(=O)c2ccccc2)C(OC(=O)c2ccccc2)C1OC(=O)c1ccccc1 (stereo unspecified)
inactive: [2] 102 % of control | [3] 102 % of control | [4] 107 % of control
